Laboratory results: patent US9120749B2, “Quinoline derivatives and MELK inhibitors containing the same” (ONCOTHERAPY SCIENCE, INC., priority 2010, dated 2015)
Where a name gives a salt, the structure may show the parent alone. Read-outs that look alike come from different tables or passages of the source.

What was measured:
DU4475 cells = experiment: Cell-based assay: anti-proliferative activity, Cell Counting Kit-8, 72 hours (DU4475)
22Rv1 cells = experiment: Cell-based assay: anti-proliferative activity, Cell Counting Kit-8, 72 hours (22Rv1)
A549 cells = experiment: Cell-based assay: anti-proliferative activity, Cell Counting Kit-8, 72 hours (A549); conditions: 72 hours
In short: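 A549 cells were seeded in 96-well plates and exposed to candidate inhibitors for 72 hours. Cell growth was then measured with Cell Counting Kit-8, and IC50 values were calculated from the resulting growth data.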

MELK = MELK (Homo sapiens, UniProt Q14680); experiment: Kinase assay: MELK activity, phosphorylation of FITC-labeled histone H3 peptide measured by IMAP fluorescence polarization; type: biochemical; conditions: read-out: IC50 (μM) (kinase assay)
In short: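 Substrate is FITC-labeled histone H3 peptide. Compounds come from a 12.5 mM DMSO stock, diluted so assay DMSO is 1%. The stop step adds threefold-volume progressive binding solution, followed by 0.5 h at room temperature and an FP read.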

T47D cells = experiment: Cell-based assay: anti-proliferative activity, Cell Counting Kit-8, 72 hours (T47D)
In short: (§1)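 IC50 values come from CCK-8 growth measurements taken 72 hours post-treatment of plated cells with test compounds. Expression of MELK across the panel was assessed through immunoblot of unfractionated lysates.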

HT-1197 cells = experiment: Cell-based assay: anti-proliferative activity, Cell Counting Kit-8, 72 hours (HT-1197, negative control without MELK expression); conditions: HT1197 cells (negative control, no MELK expression), 72 hours
In short: as §1

[1] = MELK kinase assay, IMAP fluorescence polarization, 50 micro-M ATP

Chain of MELK (Q14680 whole entry, looked up): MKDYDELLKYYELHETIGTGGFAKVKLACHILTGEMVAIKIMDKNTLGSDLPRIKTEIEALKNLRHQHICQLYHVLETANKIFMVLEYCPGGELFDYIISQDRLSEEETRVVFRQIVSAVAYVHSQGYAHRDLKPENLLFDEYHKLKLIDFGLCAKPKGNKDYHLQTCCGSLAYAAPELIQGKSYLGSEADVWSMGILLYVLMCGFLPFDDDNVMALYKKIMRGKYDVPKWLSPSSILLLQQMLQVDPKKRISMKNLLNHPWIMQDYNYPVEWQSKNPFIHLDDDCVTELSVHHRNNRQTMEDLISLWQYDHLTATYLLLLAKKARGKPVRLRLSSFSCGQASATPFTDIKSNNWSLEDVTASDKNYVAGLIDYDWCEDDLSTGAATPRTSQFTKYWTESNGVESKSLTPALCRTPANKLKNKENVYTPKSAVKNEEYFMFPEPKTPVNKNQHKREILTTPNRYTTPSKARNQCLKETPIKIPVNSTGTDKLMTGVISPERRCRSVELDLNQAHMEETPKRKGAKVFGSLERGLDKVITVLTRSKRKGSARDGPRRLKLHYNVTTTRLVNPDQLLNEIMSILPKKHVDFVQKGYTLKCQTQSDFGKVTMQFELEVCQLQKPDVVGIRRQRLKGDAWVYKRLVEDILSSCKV

Structure (SMILES) | IC50 (DU4475 cells; Homo sapiens, DU-4475, 72 h) | IC50 (22Rv1 cells; Homo sapiens, 22Rv1, 72 h) | IC50 (A549 cells; Homo sapiens, A549, 72 h) | IC50 (MELK) | IC50 (T47D cells; Homo sapiens, T47D, 72 h) | IC50 (HT-1197 cells; Homo sapiens, HT1197, 72 h) | IC50 (MELK; [1]) | also measured
CCN(CC)C[C@H]1CC[C@H](Nc2c(C(C)=O)cnc3ccc(-c4cc(F)c(O)c(Cl)c4)cc23)CC1 [Example 794] | 0.074 µM | 0.094 µM | 0.077 µM | 0.0056 µM | 0.031 µM | 0.75 µM |  | 
CN(C)CCNc1ccc(Nc2c(C(=O)C3CC3)cnc3ccc(-c4cc(F)c(O)c(Cl)c4)cc23)cn1 [Example 776, (6-(3-chloro-5-fluoro-4-hydroxyphenyl)-4-(6-(2-(dimethylamino)ethylamino)pyridin-3-ylamino)quinolin-3-yl)(cyclopropyl)methanone] | 0.038 µM | 0.15 µM | 0.08 µM |  | 0.073 µM | 1.2 µM |  | 
CC(=O)c1cnc2ccc(-c3cc(F)c(O)c(Cl)c3)cc2c1Nc1ccc(N2CCC(N)C2)nc1 (stereo not shown) [Example 773, 1-(4-(6-(3-aminopyrrolidin-1-yl)pyridin-3-ylamino)-6-(3-chloro-5-fluoro-4-hydroxyphenyl)quinolin-3-yl)ethanone] | 0.017 µM | 0.0094 µM | 0.028 µM | 0.006 µM | 0.0042 µM | 0.7 µM |  | 
CC(=O)c1cnc2ccc(-c3cc(Cl)c(O)c(Cl)c3)cc2c1N[C@H]1CCC[C@H](CCN(C)C)C1 [Example 861, 1-(6-(3,5-dichloro-4-hydroxyphenyl)-4-(((1S,3R)-3-(2-(dimethylamino)ethyl)cyclohexyl)amino)quinolin-3-yl)ethanone hydrochloride] | 0.19 µM | 0.24 µM | 0.25 µM |  | 0.22 µM | 1 µM | 0.0032 µM | 
CCC(=O)c1cnc2ccc(-c3cc(Cl)c(O)c(Cl)c3)cc2c1Nc1ccc(N2CCCC(N)C2)nc1 (stereo not shown) [Example 824, 1-(4-(6-(3-aminopiperidin-1-yl)pyridin-3-ylamino)-6-(3,5-dichloro-4-hydroxyphenyl)quinolin-3-yl)propan-1-one] | 0.026 µM | 0.026 µM | 0.036 µM |  | 0.021 µM | 0.28 µM | 0.0016 µM | 
CCC(=O)c1cnc2ccc(-c3cc(Cl)c(O)c(Cl)c3)cc2c1N[C@H]1CC[C@H](CN2CCCC2)CC1 [Example 843] | 0.057 µM | 0.19 µM | 0.15 µM |  | 0.15 µM | 4.2 µM | 0.0016 µM | 
CCN(C)C[C@H]1CC[C@H](Nc2c(C(C)=O)cnc3ccc(-c4cc(F)c(O)c(Cl)c4)cc23)CC1 [Example 845] | 0.069 µM | 0.11 µM | 0.14 µM |  | 0.063 µM | 1.4 µM | 0.00204 µM | 
CN(C)CCN1CCC(Nc2c(C(=O)C3CC3)cnc3ccc(-c4cc(F)c(O)c(Cl)c4)cc23)CC1 [Example 822, (6-(3-chloro-5-fluoro-4-hydroxyphenyl)-4-(1-(2-(dimethylamino)ethyl)piperidin-4-ylamino)quinolin-3-yl)(cyclopropyl)methanone] | 0.16 µM | 0.43 µM | 0.48 µM |  | 0.29 µM | 2.5 µM | 0.0031 µM | 
CC(=O)c1cnc2ccc(-c3cc(F)c(O)c(Cl)c3)cc2c1N[C@H]1CCC[C@H](CCN(C)C)C1 [Example 862, 1-(6-(3-chloro-5-fluoro-4-hydroxyphenyl)-4-(((1S,3R)-3-(2-(dimethylamino)ethyl)cyclohexyl)amino)quinolin-3-yl)ethanone hydrochloride] | 0.2 µM | 0.2 µM | 0.29 µM |  | 0.26 µM | 1.1 µM | 0.0067 µM | 
CN(C)CCN1CCC(Nc2c(C(=O)C3CC3)cnc3ccc(-c4cc(Cl)c(O)c(Cl)c4)cc23)CC1 [Example 820, cyclopropyl(6-(3,5-dichloro-4-hydroxyphenyl)-4-(1-(2-(dimethylamino)ethyl)piperidin-4-ylamino)quinolin-3-yl)methanone] |  |  |  |  |  |  | 0.0018 µM | IC50 (DU4475 cells): 0.15 µM; IC50 (22Rv1 cells): 0.82 µM; IC50 (A549 cells): 0.46 µM; IC50 (T47D cells; 72 hours): 0.32 µM; IC50 (HT-1197 cells): 2.9 µM
CC(=O)c1cnc2ccc(-c3cc(F)c(O)c(Cl)c3)cc2c1N[C@H]1CC[C@H](CN2CCC(N)C2)CC1 (stereo partly drawn) [Example 786, 1-(4-(1R,4R)-4-((3-aminopyrrolidin-1-yl)methyl)cyclohexylamino)-6-(3-chloro-5-fluoro-4-hydroxyphenyl)quinolin-3-yl)ethanone hydrochloride] | 0.23 µM | 0.17 µM | 0.96 µM | 0.0031 µM | 0.07 µM | 10 µM |  | 
CC(=O)c1cnc2ccc(-c3cc(Cl)c(O)c(Cl)c3)cc2c1N[C@H]1CC[C@H](CN2CCCC(N)C2)CC1 (stereo partly shown) [Example 810] | 0.044 µM | 0.056 µM | 0.12 µM | 0.0018 µM | 0.034 µM | 2.3 µM |  | 
COc1cc(-c2ccc3ncc(C(=O)C4CC4)c(NC4CCN(C5CCNC5)CC4)c3c2)cc(Cl)c1O (stereo not shown) [Example 764, (6-(3-chloro-4-hydroxy-5-methoxyphenyl)-4-(1-(pyrrolidin-3-yl)piperidin-4-ylamino)quinolin-3-yl)(cyclopropyl)methanone] | 0.18 µM | 0.95 µM | 1.3 µM | 0.0029 µM | 0.18 µM | 5.3 µM |  | 
CCN(C)C[C@H]1CC[C@H](Nc2c(C(C)=O)cnc3ccc(-c4cc(Cl)c(O)c(Cl)c4)cc23)CC1 [Example 817, 1-(6-(3,5-dichloro-4-hydroxyphenyl)-4-((1R,4R)-4-((ethyl(methyl)amino)methyl)cyclohexylamino)quinolin-3-yl)ethanone] | 0.074 µM | 0.12 µM | 0.15 µM |  | 0.097 µM | 11 µM | 0.0014 µM | 
COc1cc(-c2ccc3ncc(C(C)=O)c(N[C@H]4CC[C@H](CN5CCCC(N)C5)CC4)c3c2)cc(Cl)c1O (stereo partly drawn) [Example 809, 1-(4-(1R,4R)-4-((3-aminopiperidin-1-yl)methyl)cyclohexylamino)-6-(3-chloro-4-hydroxy-5-methoxyphenyl)quinolin-3-yl)ethanone hydrochloride] | 10 µM | 2.6 µM | 3.1 µM | 0.016 µM | 4.6 µM | 10 µM |  | 
CC(=O)c1cnc2ccc(-c3cc(Cl)c(O)c(Cl)c3)cc2c1Nc1cccc(CCN2CCCC2)c1 [Example 802, 1-(6-(3,5-dichloro-4-hydroxyphenyl)-4-(3-(2-(pyrrolidin-1-yl)ethyl)phenylamino)quinolin-3-yl)ethanone hydrochloride] |  |  |  |  |  |  |  | IC50 (DU4475 cells; hydrochloride): 0.072 µM; IC50 (22Rv1 cells; hydrochloride): 0.16 µM; IC50 (A549 cells; hydrochloride): 0.08 µM; IC50 (MELK; hydrochloride): 0.0021 µM; IC50 (T47D cells; 72 hours, hydrochloride): 0.45 µM
O=C(c1cnc2ccc(-c3cc(F)c(O)c(Cl)c3)cc2c1Nc1cccc(CCN2CCCC2)c1)C1CC1 [Example 800, (6-(3-chloro-5-fluoro-4-hydroxyphenyl)-4-(3-(2-(pyrrolidin-1-yl)ethyl)phenylamino)quinolin-3-yl)(cyclopropyl)methanone hydrochloride] |  |  |  |  |  |  |  | IC50 (DU4475 cells; hydrochloride): 0.046 µM; IC50 (22Rv1 cells; hydrochloride): 0.17 µM; IC50 (A549 cells; hydrochloride): 0.041 µM; IC50 (MELK; hydrochloride): 0.012 µM; IC50 (T47D cells; 72 hours, hydrochloride): 0.26 µM
CC(=O)c1cnc2ccc(-c3cc(Cl)c(O)c(Cl)c3)cc2c1N[C@H]1CC[C@H](CN2CCC[C@@H]2CO)CC1 [Example 812] | 0.086 µM | 0.2 µM | 0.18 µM | 0.0017 µM | 0.15 µM |  |  | 
CC(=O)c1cnc2ccc(-c3cc(Cl)c(O)c(Cl)c3)cc2c1N[C@H]1CC[C@H](CN2CCN(C)CC2)CC1 [Example 782, 1-(6-(3,5-dichloro-4-hydroxyphenyl)-4-(1R,4R)-4-((4-methylpiperazin-1-yl)methyl)cyclohexylamino)quinolin-3-yl)ethanone hydrochloride] | 0.16 µM | 0.41 µM | 0.23 µM |  | 0.15 µM | 5.9 µM |  | 
CN(C)CCNc1ccc(Nc2c(C(=O)C3CC3)cnc3ccc(-c4cc(F)c(O)c(Cl)c4)cc23)cn1 [Example 777, (6-(3-chloro-5-fluoro-4-hydroxyphenyl)-4-(6-(2-(dimethylamino)ethylamino)pyridin-3-ylamino)quinolin-3-yl)(cyclopropyl)methanone trihydrochloride] |  |  |  |  |  |  |  | IC50 (DU4475 cells; trihydrochloride): 0.047 µM; IC50 (22Rv1 cells; trihydrochloride): 0.17 µM; IC50 (A549 cells; trihydrochloride): 0.12 µM; IC50 (T47D cells; 72 hours, trihydrochloride): 0.12 µM; IC50 (HT-1197 cells; trihydrochloride): 1.6 µM
CC(=O)c1cnc2ccc(-c3cc(Cl)c(O)c(Cl)c3)cc2c1N[C@H]1CCC[C@@H](CN2CCN(C)CC2)C1 [Example 835, 1-(6-(3,5-dichloro-4-hydroxyphenyl)-4-((1S,3R)-3-((4-methylpiperazin-1-yl)methyl)cyclohexylamino)quinolin-3-yl)ethanone hydrochloride] | 0.6 µM | 0.81 µM | 0.79 µM |  | 0.58 µM | 2.7 µM |  | 
O=C(c1cnc2ccc(-c3cc(Cl)c(O)c(Cl)c3)cc2c1Nc1cccc(CCN2CCCC2)c1)C1CC1 [Example 798, cyclopropyl(6-(3,5-dichloro-4-hydroxyphenyl)-4-(3-(2-(pyrrolidin-1-yl)ethyl)phenylamino)quinolin-3-yl)methanone hydrochloride] |  |  |  |  |  |  |  | IC50 (DU4475 cells; hydrochloride): 0.02 µM; IC50 (22Rv1 cells; hydrochloride): 0.092 µM; IC50 (A549 cells; hydrochloride): 0.019 µM; IC50 (MELK; hydrochloride): 0.0029 µM; IC50 (T47D cells; 72 hours, hydrochloride): 0.16 µM
